Target: T1, CFTR (Homo sapiens, UniProt P13569, DEL508-508)
T1 construct: human bronchial epithelial (HBE) cells derived from CF subjects heterozygous for F508del; endogenous in cells; host or cells: primary human bronchial epithelial cells from CF subjects (F508del/MF-HBE)
Test: HBE assay: Ussing chamber assay of CFTR-mediated short-circuit currents (F508del/MF-HBE, with 1 μM Ivacaftor)
Assay type: cell-based
Settings: F508del/MF-HBE cells, 18-24 hours, 20% human serum; for EC50: range of concentrations with 1 μM Ivacaftor; for HBE Max Activity: with 1 μM Ivacaftor, compared to known Vertex corrector with 18 μM Tezacaftor and 1 μM Ivacaftor; for HBE Activity at 10 μM: single fixed concentration of 10 μM with 1 μM Ivacaftor
Method: 1. Ussing Chamber Assay of CFTR-mediated short-circuit currents
Ussing chamber experiments were performed using human bronchial epithelial (HBE) cells derived from CF subjects heterozygous for F508del and a minimal function CFTR mutation (F508del/MF-HBE) and cultured as previously described (Neuberger T, Burton B, Clark H, Van Goor F Methods Mol Biol 2011:741:39-54). After four days the apical media was removed, and the cells were grown at an air liquid interface for >14 days prior to use.
To isolate the CFTR-mediated short-circuit (ISC) current, F508del/MF-HBE grown on Costar® Snapwell™ cell culture inserts were mounted in an Ussing chamber and the transepithelial ISC was measured under voltage-clamp recording conditions (Vhold=0 mV) at 37° C. The basolateral solution contained (in mM) 145 NaCl, 0.83 K2HPO4, 3.3 KH2PO4, 1.2 MgCl2, 1.2 CaCl2), 10 Glucose, 10 HEPES (pH adjusted to 7.4 with NaOH) and the apical solution contained (in mM) 145 NaGluconate, 1.2 MgCl2, 1.2 CaCl2), 10 glucose, 10 HEPES (pH adjusted to 7.4 with NaOH) and 30 μM amiloride to block the epithelial sodium channel. Forskolin (20 μM) was added to the apical surface to activate CFTR, followed by apical addition of a CFTR inhibitor cocktail consisting of BPO, GlyH-101, and CFTR inhibitor 172 (each at 20 μM final assay concentration) to specifically isolate CFTR currents. The CFTR-mediated ISC (μA/cm^2) for each condition was determined from the peak forskolin response to the steady-state current following inhibition.
2. Identification of Corrector Compounds
The activity of the CFTR corrector compounds on the CFTR-mediated ISC was determined in Ussing chamber studies as described above. The F508del/MF-HBE cell cultures were either incubated with the corrector compounds at a range of concentrations in combination with 1 μM Ivacaftor or were incubated with the corrector compounds at a single fixed concentration of 10 μM in combination with 1 μM Ivacaftor for 18-24 hours at 37° C. and in the presence of 20% human serum. The concentration of corrector compounds with 1 μM Ivacaftor during the 18-24 hours incubations was kept constant throughout the Ussing chamber measurement of the CFTR-mediated ISC to ensure compounds were present throughout the entire experiment.

T1 sequence (P13569 with tags, fused parts or gaps DEL508-508): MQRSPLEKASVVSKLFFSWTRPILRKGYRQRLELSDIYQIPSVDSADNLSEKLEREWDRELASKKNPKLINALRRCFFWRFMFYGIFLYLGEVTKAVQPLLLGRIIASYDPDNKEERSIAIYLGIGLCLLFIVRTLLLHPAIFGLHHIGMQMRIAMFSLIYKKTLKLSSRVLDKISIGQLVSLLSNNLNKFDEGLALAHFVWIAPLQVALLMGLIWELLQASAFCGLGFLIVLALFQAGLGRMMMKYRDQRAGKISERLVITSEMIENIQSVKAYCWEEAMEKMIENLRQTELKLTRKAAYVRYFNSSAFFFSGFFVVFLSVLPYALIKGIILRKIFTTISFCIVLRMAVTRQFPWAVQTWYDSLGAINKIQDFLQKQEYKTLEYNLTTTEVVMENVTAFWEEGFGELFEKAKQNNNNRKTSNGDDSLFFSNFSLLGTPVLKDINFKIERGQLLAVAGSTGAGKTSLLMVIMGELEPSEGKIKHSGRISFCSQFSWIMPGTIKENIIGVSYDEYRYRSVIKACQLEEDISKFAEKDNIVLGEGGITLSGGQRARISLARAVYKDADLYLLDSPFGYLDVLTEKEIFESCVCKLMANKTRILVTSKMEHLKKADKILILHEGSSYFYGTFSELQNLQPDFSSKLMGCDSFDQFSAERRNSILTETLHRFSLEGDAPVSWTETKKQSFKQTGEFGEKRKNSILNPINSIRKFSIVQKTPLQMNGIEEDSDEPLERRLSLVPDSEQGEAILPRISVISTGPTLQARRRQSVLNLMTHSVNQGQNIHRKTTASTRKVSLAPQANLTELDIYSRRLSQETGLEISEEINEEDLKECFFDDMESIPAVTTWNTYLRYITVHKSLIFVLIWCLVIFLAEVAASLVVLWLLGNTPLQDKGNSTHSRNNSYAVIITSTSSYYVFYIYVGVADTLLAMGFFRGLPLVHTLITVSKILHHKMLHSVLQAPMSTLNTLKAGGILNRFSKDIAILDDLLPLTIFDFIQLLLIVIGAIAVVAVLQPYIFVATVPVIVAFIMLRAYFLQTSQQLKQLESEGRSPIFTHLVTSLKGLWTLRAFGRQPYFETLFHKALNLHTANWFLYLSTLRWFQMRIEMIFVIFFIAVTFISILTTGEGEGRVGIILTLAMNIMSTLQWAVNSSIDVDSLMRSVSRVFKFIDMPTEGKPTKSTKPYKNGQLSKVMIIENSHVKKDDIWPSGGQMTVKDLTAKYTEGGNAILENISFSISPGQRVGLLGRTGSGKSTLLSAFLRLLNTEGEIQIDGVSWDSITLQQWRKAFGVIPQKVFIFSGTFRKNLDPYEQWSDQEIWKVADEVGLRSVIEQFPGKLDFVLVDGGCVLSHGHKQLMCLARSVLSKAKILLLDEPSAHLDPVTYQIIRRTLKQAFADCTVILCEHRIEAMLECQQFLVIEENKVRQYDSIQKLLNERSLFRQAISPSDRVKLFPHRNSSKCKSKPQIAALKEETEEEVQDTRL

Row | EC50 [µM] | HBE Max Activity | HBE Activity at 10 μM | SMILES
1 | < 1 | +++ (+++ is >60%) | – | Cc1cccc(C)c1-c1cc2nc(n1)NS(=O)(=O)c1cccc(c1)C(=O)N(C1CC3(CC(N4C[C@@H](C)O[C@@H](C)C4)C3)C1)[C@H](CC(C)(C)C)CO2 (single isomer, unassigned) [Compound 86]
2 | < 1 | +++ (+++ is >60%) | – | Cc1cccc(C)c1-c1cc2nc(n1)NS(=O)(=O)c1cccc(c1)C(=O)N(C1CC3(CC(N4C[C@@H](C)O[C@@H](C)C4)C3)C1)[C@H](CC(C)(C)C)CO2 (single isomer, unassigned) [Compound 87]
3 | < 1 | +++ (+++ is >60%) | – | Cc1cccc(C)c1-c1cc2nc(n1)NS(=O)(=O)c1cccc(c1)C(=O)N([C@H]1C[C@](C)(O)C1)[C@H](CC(C)(C)C)CO2 (single isomer, unassigned) [Compound 139]
4 | < 1 | +++ (+++ is >60%) | – | Cc1cccc(C)c1-c1cc2nc(n1)NS(=O)(=O)c1cccc(c1)C(=O)N([C@H]1C[C@@](O)(Cc3ccccc3)C1)[C@H](CC(C)(C)C)CO2 (single isomer, unassigned) [Compound 140]
5 | < 1 | +++ (+++ is >60%) | – | Cc1cccc(C)c1-c1cc2nc(n1)NS(=O)(=O)c1cccc(c1)C(=O)N([C@H]1C[C@@]3(CCCN(C(=O)CO)C3)C1)[C@H](CC(C)(C)C)CO2 (single isomer, unassigned) [Compound 144]
6 | < 1 | +++ (+++ is >60%) | – | Cc1cccc(C)c1-c1cc2nc(n1)NS(=O)(=O)c1cccc(c1)C(=O)N([C@H]1C[C@@]3(CCCN(C(=O)CO)C3)C1)[C@H](CC(C)(C)C)CO2 (single isomer, unassigned) [Compound 145]
7 | < 1 | +++ (+++ is >60%) | – | Cc1cccc(C)c1-c1cc2nc(n1)NS(=O)(=O)c1cccc(c1)C(=O)N(C1CC3(CC(N4CCOCC4)C3)C1)[C@H](CC(C)(C)C)CO2 (single isomer, unassigned) [Compound 432]
8 | – | – | +++ (+++ is >60%) | Cc1cccc(C)c1-c1cc2nc(n1)NS(=O)(=O)c1cccc(c1)C(=O)N(C1CC3(CCCCN3C(=O)CO)C1)[C@H](CC(C)(C)C)CO2 (stereo in doubt) [Compound 203]
9 | – | – | +++ (+++ is >60%) | Cc1cccc(C)c1-c1cc2nc(n1)NS(=O)(=O)c1cccc(c1)C(=O)N(C1CC3(CCCCN3C(=O)CO)C1)[C@H](CC(C)(C)C)CO2 (stereo in doubt) [Compound 204]
10 | < 1 | +++ (+++ is >60%) | – | Cc1cccc(C)c1-c1cc2nc(n1)NS(=O)(=O)c1cccc(c1)C(=O)N(C1CC3(CCCN3C(=O)CO)C1)[C@H](CC(C)(C)C)CO2 (stereo in doubt) [Compound 205]
11 | < 1 | +++ (+++ is >60%) | – | Cc1cccc(C)c1-c1cc2nc(n1)NS(=O)(=O)c1cccc(c1)C(=O)N(C1CC3(CCCN3C(=O)CO)C1)[C@H](CC(C)(C)C)CO2 (stereo in doubt) [Compound 206]
12 | – | – | +++ (+++ is >60%) | Cc1cccc(C)c1-c1cc2nc(n1)NS(=O)(=O)c1cccc(c1)C(=O)N([C@H]1CC3(C[C@H](N(C)CCC(F)(F)F)C3)C1)[C@H](CC1(C(F)(F)F)CC1)CO2 (stereo in doubt) [Compound 219]
13 | < 1 | +++ (+++ is >60%) | – | Cc1cccc(C)c1-c1cc2nc(n1)NS(=O)(=O)c1cccc(c1)C(=O)N([C@H]1C[C@@]3(C[C@H](NCC(F)(F)F)C3)C1)[C@H](CC1(C(F)(F)F)CC1)CO2 (stereo in doubt) [Compound 220]
14 | – | – | ++ (++ is 30-60%) | Cc1cccc(CO)c1-c1cc2nc(n1)NS(=O)(=O)c1cccc(c1)C(=O)N([C@H]1CC3(C[C@H](NC(=O)OC(C)C)C3)C1)[C@H](CC(C)(C)C)CO2 (stereo in doubt) [Compound 402]
15 | – | – | ++ (++ is 30-60%) | Cc1cccc(CO)c1-c1cc2nc(n1)NS(=O)(=O)c1cccc(c1)C(=O)N([C@H]1CC3(C[C@H](NC(=O)OC(C)C)C3)C1)[C@H](CC(C)(C)C)CO2 (stereo in doubt) [Compound 403]
16 | < 1 | +++ (+++ is >60%) | – | Cc1cccc(C)c1-c1cc2nc(n1)NS(=O)(=O)c1cccc(c1)C(=O)N(C1CC3(C1)CC(O)(Cc1ccccc1)C3)[C@H](CC(C)(C)C)CO2 (stereo in doubt) [Compound 430]
17 | < 1 | +++ (+++ is >60%) | – | Cc1cccc(C)c1-c1cc2nc(n1)NS(=O)(=O)c1cccc(c1)C(=O)N(C1CC3(C1)CC(O)(Cc1ccccc1)C3)[C@H](CC(C)(C)C)CO2 (stereo in doubt) [Compound 431]
18 | – | – | +++ (+++ is >60%) | Cc1cccc(C)c1-c1cc2nc(n1)NS(=O)(=O)c1cccc(c1)C(=O)N(C1CC(N3C[C@@H](C)O[C@@H](C)C3)C1)[C@H](CC(C)(C)C)CO2 (stereo in doubt) [Compound 434]
19 | 3 to 30 | +++ (+++ is >60%) | – | Cc1cccc(C)c1-c1cc2nc(n1)NS(=O)(=O)c1cccc(c1)C(=O)N(c1cn[nH]c1)[C@H](CC(C)C)CO2 [Compound 99, (11R)-6-(2,6-Dimethylphenyl)-11-isobutyl-2,2-dioxo-12-(1H-pyrazol-4-yl)-9-oxa-2λ^6-thia-3,5,12,19-tetrazatricyclo[12.3.1.14,8]nonadeca-1(18),4(19),5,7,14,16-hexaen-13-one]
20 | < 1 | +++ (+++ is >60%) | – | Cc1cccc(C)c1-c1cc2nc(n1)NS(=O)(=O)c1cccc(c1)C(=O)N([C@H]1C[C@@H](N3CCOCC3)C1)[C@H](CC(C)(C)C)CO2 [Compound 178, (11R)-6-(2,6-Dimethylphenyl)-11-(2,2-dimethylpropyl)-12-(3-morpholinocyclobutyl)-2,2-dioxo-9-oxa-2λ^6-thia-3,5,12,19-tetrazatricyclo[12.3.1.14,8]nonadeca-1(18),4(19),5,7,14,16-hexaen-13-one]
21 | < 1 | +++ (+++ is >60%) | – | Cc1cccc(C)c1-c1cc2nc(n1)NS(=O)(=O)c1cccc(c1)C(=O)N(c1cn[nH]c1)[C@H](CC(C)(C)C)CO2 [Compound 185, (11R)-6-(2,6-Dimethylphenyl)-11-(2,2-dimethylpropyl)-2,2-dioxo-12-(1H-pyrazol-4-yl)-9-oxa-2λ^6-thia-3,5,12,19-tetrazatricyclo[12.3.1.14,8]nonadeca-1(18),4(19),5,7,14,16-hexaen-13-one]
22 | – | – | ++ (++ is 30-60%) | Cc1cccc(CO)c1-c1cc2nc(n1)NS(=O)(=O)c1cccc(c1)C(=O)N(C1CC3(CC(NC(=O)OC(C)C)C3)C1)[C@H](CC(C)(C)C)CO2 (stereo partly shown) [Compound 209]
23 | < 1 | +++ (+++ is >60%) | – | Cc1cccc(C)c1-c1cc2nc(n1)NS(=O)(=O)c1cccc(c1)C(=O)N([C@H]1C[C@@]3(C[C@H](NCCC(F)(F)F)C3)C1)[C@H](CC1(C(F)(F)F)CC1)CO2 (stereo partly shown) [Compound 218]
24 | < 1 | +++ (+++ is >60%) | – | Cc1cccc(C)c1-c1cc2nc(n1)NS(=O)(=O)c1cccc(c1)C(=O)N([C@H]1C[C@@]3(C[C@H](N(C)CC(F)(F)F)C3)C1)[C@H](CC1(C(F)(F)F)CC1)CO2 (stereo partly shown) [Compound 221]
25 | < 1 | +++ (+++ is >60%) | – | Cc1cccc(C)c1-c1cc2nc(n1)NS(=O)(=O)c1cccc(c1)C(=O)N(C1CC3(CCN(c4ccccn4)CC3)C1)[C@H](CC(C)(C)C)CO2 [Compound 350]

From patent US20230382925A1, “MODULATORS OF CYSTIC FIBROSIS TRANSMEMBRANE CONDUCTANCE REGULATOR” (VERTEX PHARMACEUTICALS INCORPORATED, priority 2020, published 2023)
